According to PubChem BioAssay (NCI):
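All cell lines were grown in 96-well plates and treated with compound for 48 hours. TGI: total growth inhibition.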

Legend:
Assay in all cases: DTP human tumour cell line panel, 48 h
TK-10 renal = tested on: TK-10 renal
SK-MEL-5 melanoma = tested on: SK-MEL-5 melanoma
SR leukemia = tested on: SR leukemia
M14 melanoma = tested on: M14 melanoma
UACC-257 melanoma = tested on: UACC-257 melanoma
HL-60(TB) leukemia = tested on: HL-60(TB) leukemia
A549 NSCLC = tested on: A549 NSCLC
IGROV1 ovarian = tested on: IGROV1 ovarian
OVCAR-8 ovarian = tested on: OVCAR-8 ovarian
DU-145 prostate = tested on: DU-145 prostate
MCF7 breast = tested on: MCF7 breast
PC-3 prostate = tested on: PC-3 prostate

| Structure (SMILES) | TGI (TK-10 renal) [µM] | TGI (SK-MEL-5 melanoma) [µM] | TGI (SR leukemia) [µM] | TGI (M14 melanoma) [µM] | TGI (UACC-257 melanoma) [µM] | TGI (HL-60(TB) leukemia) [µM] | TGI (A549 NSCLC) [µM] | TGI (IGROV1 ovarian) [µM] | TGI (OVCAR-8 ovarian) [µM] | TGI (DU-145 prostate) [µM] | TGI (MCF7 breast) [µM] | TGI (PC-3 prostate) [µM] |
| --- | --- | --- | --- | --- | --- | --- | --- | --- | --- | --- | --- | --- |
| COc1cccc(/C(C=O)=C(\Cl)c2ccc(OC)c(OC)c2)c1 | 73 | 25.3 | 82.1 | 31.6 | 29.3 | 20.7 | 46.8 | 41.8 | 30.3 |  |  |  |
| O=C1/C(=C/c2ccc(Cl)cc2)NC(=S)N1CN1CCOCC1 | > 100 | > 100 |  | > 100 | > 100 |  | > 100 | > 100 | > 100 | > 100 | > 100 | > 100 |
| O=C1SC(c2ccc(Cl)cc2)(c2ccc(Cl)cc2)c2ccccc21 | > 100 | > 100 |  | > 100 | > 100 | 96.6 | > 100 | > 100 | > 100 | > 100 | > 100 | > 100 |
| NC(=O)c1csc(CCCCCCc2nc(C(N)=O)cs2)n1 | > 100 | > 100 | > 100 | > 100 | > 100 | > 100 | > 100 | > 100 | > 100 |  |  |  |
| OCCSCc1cc2c(O)c(c1)Cc1cc(CSCCO)cc(c1O)Cc1cc(CSCCO)cc(c1O)Cc1cc(CSCCO)cc(c1O)C2 | 37 | 4.4 |  | 12.7 | 27.7 | > 100 | 20.4 | 10.9 | 17.6 | 23.5 | 14.5 | 8.88 |
| CC(=O)OC1OC2C(NC(=O)OC(C)(C)C)C1CC2(OCc1ccccc1)OCc1ccccc1 (stereo not given) | 44.3 | 33.1 | > 100 | 50.6 | 37.9 | 35.2 | > 100 | 90.3 | > 100 |  |  |  |
| COc1ccc(C2CCC(Cl)(OC)CC2C=O)cc1 (stereo not given) | > 100 | > 100 | > 100 | > 100 | > 100 | > 100 | > 100 | > 100 | > 100 |  |  |  |
| O=C1C(Cl)C(c2ccc(Cl)cc2)N1n1cnc2ccccc2c1=O (stereo not given) | > 100 | > 100 | > 100 | > 100 | > 100 | > 100 | > 100 | > 100 | > 100 |  |  |  |
| Cc1nccc2c1cnc1ccnn12 | > 100 | > 100 | > 100 | > 100 | > 100 | > 100 | > 100 | > 100 | > 100 |  |  |  |
| CCCCSC1=N/C(=C\c2ccco2)C(=O)N1 | > 100 | > 100 |  | > 100 | > 100 | > 100 | > 100 | > 100 | > 100 | > 100 | > 100 | > 100 |
| COc1ccc2c(c1)N(C(C)=O)CN1C(=O)CCC21 (stereo not given) | > 100 | > 100 |  | > 100 | > 100 | > 100 | > 100 | > 100 | > 100 | > 100 | > 100 | > 100 |
| Nc1nc(Cl)cc(NCC2(CO)CCC2)n1 | > 100 | > 100 | > 100 |  |  | > 100 | > 100 | > 100 | > 100 | > 100 | > 100 | > 100 |
| O=C(O)c1cc(-c2ccccc2O)nc2ccccc12 | > 100 | > 100 |  | > 100 | > 100 |  | > 100 | > 100 | > 100 |  |  |  |
| NC12CC3CC(C1)CC(Cl)(C3)C2 | > 100 |  |  | > 100 | > 100 | > 100 | > 100 | > 100 | > 100 |  |  |  |
| CC1=Nc2c([nH]c(=S)[nH]c2=O)NC(c2ccc(Cl)c(Cl)c2)C1 (stereo not given) | > 87.7 | > 60.7 | > 100 | 31.3 | 47 | > 100 | 47.5 | 40.8 | 38.2 |  |  |  |
| COc1ccc(Nc2nc(N)c(C(=O)c3ccc(OC)cc3)s2)cc1 | > 60.7 | > 100 |  |  | > 100 | 0.802 | > 44.5 | 32 | > 74.5 | 6.94 | > 100 | 22.1 |
| CCOC(=O)C1=C(O)c2ccccc2C(=O)C1=O | > 100 | > 100 | > 100 | > 100 | > 100 | > 100 | > 100 | > 100 | > 100 |  |  |  |
| CO[C@@](c1ccccc1)(c1nc(C#N)c(N)o1)C(F)(F)F | > 100 | > 100 |  | > 100 | > 100 |  | > 100 | > 100 | > 100 | > 100 | > 100 | > 100 |
| Cn1cnc2c(OCC3CCCCC3)nc(N)nc21 | > 100 | > 100 |  | > 100 | > 100 | > 100 | > 100 | > 100 | > 100 | > 100 | > 100 | > 100 |
| NC1=NC2(O)c3ccccc3C(=O)C2(O)N1 (stereo not given) | > 100 | > 100 | > 100 | > 100 | > 100 | > 100 | > 100 | > 100 | > 100 |  |  |  |
| Cc1cc(NC(=O)C(=O)Cc2cnc3ccccc3n2)c(S(=O)(=O)O)cc1Cl | > 100 | > 100 |  | > 100 | > 100 | > 100 | > 100 | > 100 | > 100 | > 100 | > 100 | > 100 |
| CCOC(=O)c1nnsc1NC(=O)Nc1ccc(Cl)cc1 | > 100 | > 100 |  | > 100 | > 100 |  | > 100 | > 100 | 41.2 | > 100 |  | > 100 |
